Measurements from ChEMBL document CHEMBL4373728, “Primaquine derivatives: Modifications of the terminal amino group” (Eur J Med Chem, 2019).
Converted amounts (≈) assume the structure as drawn.

Experiments:
Staphylococcus aureus [1] = test: Antimicrobial activity against Staphylococcus aureus; assay type: functional
Escherichia coli [2] = test: Anti-biofilm activity against Escherichia coli; assay type: functional
Pseudomonas aeruginosa = test: Antimicrobial activity against Pseudomonas aeruginosa; assay type: functional
Escherichia coli [3] = test: Antimicrobial activity against Escherichia coli; assay type: functional
Human coronavirus 229E = test: Antiviral activity against Human coronavirus 229E; assay type: functional, organism-based
Plasmodium falciparum [4] = test: Antimalarial activity against Plasmodium falciparum Dd2 by HRP2 assay; assay type: functional, organism-based
Plasmodium falciparum [5] = test: Antimalarial activity against chloroquine-sensitive Plasmodium falciparum 3D7 by HRP2 assay; assay type: functional, organism-based
Plasmodium berghei = test: Antimalarial activity against Plasmodium berghei infected in human Huh7 cells after 1 hr by luciferase reporter gene assay; assay type: functional, organism-based; conditions: Huh-7, 1 h
Plasmodium falciparum [6] = test: Antimalarial activity against erythrocytic stage of Plasmodium falciparum by HRP2 assay; assay type: functional, organism-based
[7] = system: Mammalian orthoreovirus 1; test: Antiviral activity against Reovirus-1; assay type: functional, organism-based
Sindbis virus = test: Antiviral activity against Sindbis virus; assay type: functional, organism-based
Punta Toro virus = test: Antiviral activity against Punta Toro virus; assay type: functional, organism-based
Coxsackievirus B4 = test: Antiviral activity against Coxsackievirus B4; assay type: functional, organism-based; conditions: Enterovirus B
Staphylococcus aureus [8] = test: Anti-biofilm activity against Staphylococcus aureus 630 after 24 hrs in aerobic condition by broth microdilution assay; assay type: functional
Staphylococcus aureus [9] = test: Anti-biofilm activity against Staphylococcus aureus 3202 after 24 hrs in aerobic condition by broth microdilution assay; assay type: functional

EC50 (Human coronavirus 229E) | IC50 (Plasmodium falciparum [4]) | IC50 (Plasmodium falciparum [5]) | IC50 (Plasmodium berghei) | IC50 (Plasmodium falciparum [6]) | SMILES | further results
 |  |  |  |  | COc1cc(NC(C)CCCNC(=O)NC(C(=O)NC(c2ccccc2)c2ccccc2)c2ccc(Cl)cc2)c2ncccc2c1 (centres undefined) | MIC (Staphylococcus aureus [1]): 6.5 µg/mL (≈ 10.2 µM); MBEC (Escherichia coli [2]): 6.25 to 50 µg/mL; MIC (Pseudomonas aeruginosa): 25 µg/mL (≈ 39.3 µM); MIC (Escherichia coli [3]): 25 µg/mL (≈ 39.3 µM)
7.9 to 15 µM |  |  |  |  | COc1cc(NC(C)CCCNC(=O)NNC(=O)/C=C/c2cccc(C(F)(F)F)c2)c2ncccc2c1 (centres undefined) | 
7.9 to 15 µM |  |  |  |  | COc1cc(NC(C)CCCNC(=O)NNC(=O)/C(C)=C/c2ccccc2)c2ncccc2c1 (centres undefined) | 
7.9 to 15 µM |  |  |  |  | COc1cc(NC(C)CCCNC(=O)NNC(=O)/C=C/c2cc(C(F)(F)F)cc(C(F)(F)F)c2)c2ncccc2c1 (centres undefined) | 
7.9 to 15 µM |  |  |  |  | COc1cc(NC(C)CCCNC(=O)NNC(=O)/C=C/c2ccc3c(c2)OCO3)c2ncccc2c1 (centres undefined) | 
 |  |  |  |  | COc1cc(NC(C)CCCNC(=O)NC(CC(C)C)C(=O)NC(c2ccccc2)c2ccccc2)c2ncccc2c1 (centres undefined) | MIC (Staphylococcus aureus [1]): 6.5 µg/mL (≈ 11.2 µM)
 |  |  |  |  | COc1cc(NC(C)CCCNC(=O)NC(C(=O)NC(c2ccccc2)c2ccc(Cl)cc2)c2ccccc2)c2ncccc2c1 (centres undefined) | MBEC (Escherichia coli [2]): 6.25 to 50 µg/mL; MIC (Pseudomonas aeruginosa): 25 µg/mL (≈ 39.3 µM); MIC (Escherichia coli [3]): 25 µg/mL (≈ 39.3 µM)
7.9 to 15 µM |  |  |  |  | COc1cc(NC(C)CCCNC(=O)NNC(=O)/C=C/c2ccc(C(F)(F)F)cc2)c2ncccc2c1 (centres undefined) | 
 | 7.74 to 18.4 µM | 7.74 to 18.4 µM | 0.11 to 0.39 µM | 7.74 to 18.4 µM | COc1cc(NC(C)CCCNC(=O)/C=C/C(=O)Nc2ccc(C(F)(F)F)cc2)c2ncccc2c1 (centres undefined) | 
 | 7.74 to 18.4 µM | 7.74 to 18.4 µM | 0.11 to 0.39 µM | 7.74 to 18.4 µM | COc1cc(NC(C)CCCNC(=O)/C=C/C(=O)Nc2cccc(C(F)(F)F)c2)c2ncccc2c1 (centres undefined) | EC50 [7]: 3.1 to 5.5 µM; EC50 (Sindbis virus): 3.1 to 5.5 µM; EC50 (Punta Toro virus): 3.1 to 5.5 µM; EC50 (Coxsackievirus B4): 3.1 µM
 | 7.74 to 18.4 µM | 7.74 to 18.4 µM | 0.11 to 0.39 µM | 7.74 to 18.4 µM | COc1cc(NC(C)CCCNC(=O)/C=C/C(=O)Nc2cccc(Cl)c2)c2ncccc2c1 (centres undefined) | EC50 [7]: 3.1 to 5.5 µM; EC50 (Sindbis virus): 3.1 to 5.5 µM; EC50 (Punta Toro virus): 3.1 to 5.5 µM
 | 7.74 to 18.4 µM | 7.74 to 18.4 µM | 0.11 to 0.39 µM | 7.74 to 18.4 µM | COc1cc(NC(C)CCCNC(=O)/C=C/C(=O)Nc2ccc(Cl)cc2)c2ncccc2c1 (centres undefined) | 

SMILES | EC50 (Human coronavirus 229E) | IC50 (Plasmodium falciparum [4]) | IC50 (Plasmodium falciparum [5]) | IC50 (Plasmodium berghei) | IC50 (Plasmodium falciparum [6]) | further results
COc1cc(NC(C)CCCNC(=O)/C=C/C(=O)Nc2ccc(F)cc2)c2ncccc2c1 (centres undefined) |  | 7.74 to 18.4 µM | 7.74 to 18.4 µM | 0.11 to 0.39 µM | 7.74 to 18.4 µM | MBEC (Staphylococcus aureus [8]): 6.3 µg/mL; MBEC (Staphylococcus aureus [9]): 6.3 µg/mL
COc1cc(NC(C)CCCNC(=O)/C=C/C(=O)Nc2cccc(F)c2)c2ncccc2c1 (centres undefined) |  | 7.74 to 18.4 µM | 7.74 to 18.4 µM | 0.11 to 0.39 µM | 7.74 to 18.4 µM | MBEC (Staphylococcus aureus [8]): 6.3 µg/mL; MBEC (Staphylococcus aureus [9]): 6.3 µg/mL
COc1cc(NC(C)CCCN)c2ncccc2c1 (centres undefined) [PRIMAQUINE] |  |  |  | 8.4 µM |  | 
